Data set [1] has as its target T1, Steroid 17-alpha-hydroxylase/17,20 lyase (Homo sapiens, UniProt P05093).
T1 sequence (P05093 whole entry): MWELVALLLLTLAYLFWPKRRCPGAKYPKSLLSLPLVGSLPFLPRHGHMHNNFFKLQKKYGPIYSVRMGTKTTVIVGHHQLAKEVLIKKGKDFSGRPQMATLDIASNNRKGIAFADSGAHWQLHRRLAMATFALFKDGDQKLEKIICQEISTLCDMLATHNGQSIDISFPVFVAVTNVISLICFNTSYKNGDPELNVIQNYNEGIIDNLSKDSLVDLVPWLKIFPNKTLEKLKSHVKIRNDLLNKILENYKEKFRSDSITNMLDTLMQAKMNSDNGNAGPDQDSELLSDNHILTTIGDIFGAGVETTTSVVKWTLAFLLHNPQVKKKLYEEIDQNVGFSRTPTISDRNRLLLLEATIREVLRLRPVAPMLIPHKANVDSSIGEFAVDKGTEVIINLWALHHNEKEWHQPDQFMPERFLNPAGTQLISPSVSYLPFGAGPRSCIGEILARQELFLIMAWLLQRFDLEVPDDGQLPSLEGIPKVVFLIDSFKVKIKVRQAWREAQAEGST
The experiment in a line: (§1) Inhibition of human CYP17 expressed in Escherichia coli at 2.5 uM. Conditions: 2.5 µM; call rule not given here.

The target of data set [2] is T2, CYP17 (steroid 17-alpha-hydroxylase/17,20 lyase) (Homo sapiens, UniProt P05093).
T2 sequence (P05093 whole entry): T1 sequence (P05093 whole entry)
The data set is described as §1. The following applies: recombinant human CYP17 expressed in Escherichia coli.

Another data set concerns the target T3, Aromatase (Homo sapiens, UniProt P11511).
T3 sequence (P11511 whole entry): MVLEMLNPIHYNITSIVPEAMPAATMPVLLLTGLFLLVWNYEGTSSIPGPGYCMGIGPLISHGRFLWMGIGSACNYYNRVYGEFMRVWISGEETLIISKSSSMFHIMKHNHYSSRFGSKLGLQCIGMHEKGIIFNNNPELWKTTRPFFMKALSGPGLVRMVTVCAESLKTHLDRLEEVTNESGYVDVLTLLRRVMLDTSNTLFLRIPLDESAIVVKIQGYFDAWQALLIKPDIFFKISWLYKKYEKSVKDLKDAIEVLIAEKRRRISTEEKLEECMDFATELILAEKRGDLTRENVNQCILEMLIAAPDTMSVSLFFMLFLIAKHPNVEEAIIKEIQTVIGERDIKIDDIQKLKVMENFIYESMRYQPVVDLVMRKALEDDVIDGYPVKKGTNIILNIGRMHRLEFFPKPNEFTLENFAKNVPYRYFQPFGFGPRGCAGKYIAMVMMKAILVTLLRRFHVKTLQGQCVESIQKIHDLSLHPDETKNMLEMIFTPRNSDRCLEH
In words: Inhibition of CYP19 in human placental microsomes. The arrangement: species or system Placenta.

In the case of `O=C(c1ccccc1)c1ccc(Cn2ccnc2)cc1`, in data set [1], the Inhibition result was “Not Active”.

Consider `O=C(c1ccccc1)c1cc(Br)ccc1Cn1ccnc1`, for which the inhibition (as a rule, the drop in the measured response relative to a control, in per cent) at 2.5 µM in data set [2] stood at 15%. Further, on Aromatase, the IC50 (in general, the concentration needed to halve the response being measured) came to 400 nM.

As for `O=C(c1ccccc1)c1cc([N+](=O)[O-])ccc1Cn1ccnc1`, the Inhibition result in data set [1] is “Not Active”. This compound also registered an IC50 against Aromatase of 25.9 nM.

Regarding `O=C(c1ccc(-c2ccccc2)cc1)c1cc([N+](=O)[O-])ccc1Cn1ccnc1`, the inhibition at 2.5 µM in data set [2] is 17%. Moreover, half-maximal inhibition against Aromatase (IC50) was put at 17.7 nM.

In the case of `O=C(c1ccc(-c2ccccc2)cc1)c1ccccc1Cn1ccnc1`, in data set [2], the inhibition at 2.5 µM came to 24%. Further, half-maximal inhibition on Aromatase (IC50) was put at 260 nM.

For `O=C(c1ccc(-c2ccccc2)cc1)c1cccc(Cn2ccnc2)c1`, in data set [1], the Inhibition entry is listed as “Not Active”. The same compound returned an IC50 against Aromatase of 5.3 nM.

On to `O=C(c1ccccc1)c1ccccc1Cn1ccnc1`, for which the Inhibition result in data set [1] is recorded as “Not Active”. The compound further came in with an IC50 against Aromatase of 560 nM.

For `O=C(c1ccccc1)c1cc(Cn2ccnc2)ccc1[N+](=O)[O-]`, in data set [1], the Inhibition result is reported as “Not Active”. On Aromatase, this compound came in with a concentration for half-maximal inhibition (IC50) of 31 nM.

Turning to `O=C(c1ccccc1)c1cccc(Cn2ccnc2)c1`, the Inhibition entry in data set [1] is “Not Active”. This compound registered an IC50 at Aromatase of 7.3 nM.

Regarding `N#Cc1ccc(C2CCCc3cncn32)cc1` (stereo not drawn) [FADROZOLE], in data set [1], the Inhibition entry was “Not Active”.
